In PMC7876453, “Targeting Indoleamine 2,3-Dioxygenase in Cancer Models Using the Novel Small Molecule Inhibitor NTRC 3883-0” (Frontiers in Immunology, 2021):
Where two headings read alike, the source gives them in different places.

Columns and labels:
human TDO = target: T1, human TDO (Homo sapiens, UniProt P48775); assay: human TDO biochemical assay (NFK GreenScreen); settings: biochemical
T1 construct: hexahistidine (C); made in house; host or cells: Escherichia coli
Method: (§1) Full-length recombinant human and mouse IDO1 were expressed in Escherichia coli with a hexahistidine tag at the N-terminus, and purified by affinity chromatography to > 95% purity, as described ([8]). Human and mouse TDO containing a C-terminal hexahistidine tag were analogously expressed and purified to > 95% purity ([8]). The inhibitory activity of compounds was determined with the NFK GreenScreen assay technology under the conditions as described ([8]), except for the reaction buffer for IDO1, which was replaced by 50 mM NaH2PO4, pH 7.0, supplemented with 0.01% Tween-20 and 1% glycerol. Inhibition of the CYP3A4 and CYP2D6 enzymes was determined with the P450-Glo™ Screening System with Luciferin-IPA (Promega, #V9920 and V9890). For determination of IC50 values, the effect of inhibitors was determined in 10-point duplicate dose-response curves. Graphs were fitted to a four-parameter logistics equation in XLfit (ID Business Solutions, Ltd., Guildford, UK) from which IC50 values were calculated.

GL-261-mTDO = GL-261-mTDO (Mus musculus, UniProt P48776); assay: cell-based assay, Trp-catabolizing activity in GL-261-mTDO cells; settings: read-out: inhibition GL-261-mTDO
GL-261-mTDO, sequence (P48776 whole entry): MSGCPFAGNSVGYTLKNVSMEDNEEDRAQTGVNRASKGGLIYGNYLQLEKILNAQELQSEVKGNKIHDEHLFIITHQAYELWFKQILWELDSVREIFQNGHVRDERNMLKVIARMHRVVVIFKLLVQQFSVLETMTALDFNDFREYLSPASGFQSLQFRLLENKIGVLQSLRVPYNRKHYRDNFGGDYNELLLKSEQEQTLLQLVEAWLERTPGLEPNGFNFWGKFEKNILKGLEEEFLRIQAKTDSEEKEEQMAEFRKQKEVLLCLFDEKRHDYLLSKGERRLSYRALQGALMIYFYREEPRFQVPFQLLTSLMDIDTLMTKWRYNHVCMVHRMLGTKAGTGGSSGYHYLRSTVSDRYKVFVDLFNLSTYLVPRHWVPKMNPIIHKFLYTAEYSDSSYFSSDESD

mTDO = target: T2, mTDO (Mus musculus, UniProt P48776); assay: mouse TDO biochemical assay (NFK GreenScreen); settings: biochemical; @ 31,600 nM
T2 construct: hexahistidine (C); made in house; host or cells: Escherichia coli
T2 sequence (P48776 whole entry): as above
Method: as §1

[1] = tested on: cell lines used in this study; assay: cell viability assays (ATPlite 1Step); settings: in parallel with the cell-based assays
[2] = in vivo pharmacokinetics, dog; design: species or system Beagle dogs; settings: Beagle, plasma; for clearance / Vd: intravenous; for Vd: read-out: Vss
Method: (§2) Pharmacokinetic properties of NTRC 3883-0 were determined in plasma following single oral (p.o.) and i.v. administration to male CD-1 mice (n = 6 per treatment group with three mice sampled per time point), Wistar rats (n = 3), cynomolgus monkey (n = 1) and Beagle dogs (n = 3). Formulations were prepared in DMSO, Kolliphor® EL, 5% D-mannitol in Elix water at a volume ratio of 1:1:8 for i.v. administration, and in 0.5% gelatin, 5% D-mannitol in Elix water for p.o. administration. Plasma samples were collected at eight to eleven time points up to 24 h after administration. Pharmacokinetic properties and required dosing in humans were predicted by allometric scaling by Karin Jorga Life Science Consulting (Basel, Switzerland) ( Figure S2 and Table S2 ).

[3] = in vivo pharmacokinetics, rat; design: species or system Wistar rats; settings: Wistar, plasma; for clearance / Vd: intravenous; for Vd: read-out: Vss
Method: as §2

[4] = plasma protein binding, mouse; type: in vitro ADME
Method: Supplement DataSheet_1.docx, table 2: Table S2. Pharmacokinetic parameters of NTRC 3883-0 observed in mouse, rat, monkey and dog, and predicted for humans using allometric scaling. Data in bold are measured, while data in italics are calculated or predicted (for humans). The clearance (Cl) and volume of distribution at steady state (Vss | column: Mouse

A375 + IFNγ (hIDO1) = target: T3, A375 + IFNγ (hIDO1) (Homo sapiens, UniProt P14902); assay: cell-based assay, Trp-catabolizing activity in IFNγ-stimulated A375 cells; settings: IFNγ-stimulated A375 human melanoma cells
T3 construct: host or cells: A375 cells stimulated with IFNγ
T3 sequence (P14902 whole entry): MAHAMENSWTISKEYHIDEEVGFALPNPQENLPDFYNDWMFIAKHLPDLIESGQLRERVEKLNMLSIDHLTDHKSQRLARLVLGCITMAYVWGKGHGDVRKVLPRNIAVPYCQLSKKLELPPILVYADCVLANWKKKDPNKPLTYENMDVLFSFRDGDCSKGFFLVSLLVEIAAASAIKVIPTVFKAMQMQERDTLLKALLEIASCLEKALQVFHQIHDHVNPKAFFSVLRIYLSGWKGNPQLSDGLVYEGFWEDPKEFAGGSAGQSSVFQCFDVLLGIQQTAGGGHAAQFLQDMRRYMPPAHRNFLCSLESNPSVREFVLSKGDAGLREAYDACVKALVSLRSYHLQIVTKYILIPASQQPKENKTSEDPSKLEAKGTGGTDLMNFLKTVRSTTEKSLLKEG

[5] = tested on: B16F10-mIDO1 subline j19 in female B6D2F1 mice; assay: B16F10-mIDO1 syngeneic mouse model, intervention study; type: in vivo
Description: For development of the mIDO1-overexpressing B16F10 mouse model, performed at Charles River Laboratories, female B6D2F1 mice were implanted subcutaneously with 1 × 10^6 parental B16F10 cells or B16F10-mIDO1 cells (subline i6 or j19) on day 0 with n = 10 mice per group. A tumor volume of 2000 mm^3 was used as the endpoint of the experiment for the individual animals. To determine the optimal inoculation cell concentration, mice were implanted with 3 × 10^5, 1 × 10^5 or 3 × 10^4 parental or mIDO1-overexpressing B16F10 cells (subline j19) with n = 5 mice per group. The same endpoint of the experiment was used as described above. […] For the intervention study, 3 x 10^5 cells of the B16F10-mIDO1 subline j19 were implanted on day 0, and treatment was started on day 3 with vehicle (DMSO, Kolliphor, 5% mannitol; […]. Four animals were excluded from analysis due to non-treatment-related deaths. Tumors and plasma were sampled 2 h post last dose.
[…]. After centrifugation, proteins were removed from the homogenized tissue supernatants and plasma samples by precipitation with methanol. The concentrations of inhibitor, Trp and Kyn were determined by LC-MS/MS.

[6] = tested on: unstimulated adherent cell samples isolated from ascites of ovarian cancer patients; assay: Trp-catabolizing activity in unstimulated ascites cell samples; type: cell-based, human; settings: for IC50: Homo sapiens
Method: Ascites was collected from patients with a primary diagnosis of advanced epithelial ovarian cancer during paracentesis for diagnostics or symptom relieve, or during primary debulking surgery. Ascites was filtered and cells were collected by centrifugation as described ([23]). To enrich for tumor cells, ascites cell samples were allowed to adhere overnight to tissue culture plastic. The cell samples were then cultured for 2–3 weeks in advanced RPMI medium (ThermoFisher), supplemented with 10% FBS, 1% glutamax and 1% P/S, with 2 or 3 times passaging of the cells. qPCR analyses of the MUC16, HE4, IDO1, and TDO2 genes were performed for all samples as described above. Five samples which could be cultured over multiple passages were analyzed for cell surface expression of mucin-16 and EpCAM by flow cytometry using FITC-conjugated anti-mucin-16 (AssayPro, #32189-05141) and APC-conjugated anti-EpCAM (Miltenyi, #130-111-117, RRID: AB_2657496) to assure that the cell cultures consisted of malignant cells. IDO1 mRNA and protein levels in these samples were analyzed as described above after incubation with or without 200 ng/ml IFNγ for 24 h. The collection of ascites and the research described was conducted with approval of the medical ethical committee of the Radboud university medical center and informed written consent from each subject.

[7] = tested on: CD8-positive T cells co-cultured with HEK-hIDO1 cells; assay: co-culture assay of HEK-hIDO1 cells with PBMCs, CFSE proliferation; type: cell-based, human; settings: 7.5 µM Trp; 10 µM NTRC 3883-0, 1 µM epacadostat; 5 days
[8] = po, p.o. versus i.v., read-out: Bioavailability (F)
[9] = 100 mg/kg p.o. b.i.d. from day 3
[10] = 100 mg/kg p.o. b.i.d., 2 h post last dose

T1 sequence (P48775 whole entry): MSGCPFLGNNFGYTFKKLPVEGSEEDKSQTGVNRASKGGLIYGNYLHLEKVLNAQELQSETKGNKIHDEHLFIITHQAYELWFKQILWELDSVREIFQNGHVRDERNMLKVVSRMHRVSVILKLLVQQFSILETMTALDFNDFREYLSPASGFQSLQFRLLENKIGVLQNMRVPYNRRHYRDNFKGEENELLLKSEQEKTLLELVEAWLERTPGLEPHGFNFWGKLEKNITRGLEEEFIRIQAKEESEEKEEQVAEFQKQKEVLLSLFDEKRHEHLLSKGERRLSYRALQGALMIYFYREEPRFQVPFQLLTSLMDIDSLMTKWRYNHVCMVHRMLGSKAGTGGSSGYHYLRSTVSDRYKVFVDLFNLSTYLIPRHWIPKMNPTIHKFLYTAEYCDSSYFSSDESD

O=C1CN(C(=O)c2c(F)cccc2F)[C@H](c2cccc(Br)c2)N1O [NTRC 3883-0]
inhibition at 31.6 µM (human TDO; @ 31,600 nM, read-out: inhibition hTDO): < 20%
activity on human TDO (in words) (human TDO; highest tested concentration 31.6 µM): inactive
inhibition at 31.6 µM (GL-261-mTDO): < 20%
inhibition at 31.6 µM (mTDO): < 20%
cytotoxicity [1]: not cytotoxic
half-life [2]: 2.8 h
clearance [2]: 1.72 L/h/kg
clearance ([2]; body weight 10 kg): 286 mL/min
Vd ([2]; body weight 10 kg): 13.6 L
Vd [2]: 1.36 L/kg
bioavailability [2, 8]: 32%
half-life [3]: 3.3 h
clearance [3]: 1.14 L/h/kg
clearance ([3]; body weight 0.29 kg): 5.52 mL/min
Vd ([3]; body weight 0.29 kg): 0.417 L
Vd [3]: 1.43 L/kg
bioavailability [3, 8]: 91%
fraction unbound [4]: 0.46
IC50 (A375 + IFNγ (hIDO1)): 0.182 µM
times lower intratumoral levels of Kyn compared to epacadostat ([5]; 100 mg/kg p.o. b.i.d.): 3.6 times
tumor growth corrected for the variation in time until tumor establishment [5, 9]: delay in tumor growth
tumor growth in comparison to vehicle-treated animals [5, 9]: no effect
times lower inhibitor level in plasma compared to epacadostat [5, 10]: 1.8 times
times lower inhibitor level in the tumors compared to epacadostat [5, 10]: 2.2 times
intratumoral Trp levels ([5]; 100 mg/kg p.o. b.i.d., LC-MS/MS): slightly more efficient in increasing Trp
inhibition of basal Trp-catabolizing activity (in words) [6]: no or only minimal inhibition
IC50 ([6]; mean of samples, read-out: IC50 Mean): > 31.6 µM
IC50 ([6]; read-out: IC50 ASC 010): > 31.6 µM
IC50 ([6]; read-out: IC50 ASC 013): > 31.6 µM
IC50 ([6]; read-out: IC50 ASC 031): > 31.6 µM
IC50 ([6]; read-out: IC50 ASC 041): > 31.6 µM
effect on IDO1-mediated inhibition of T cell proliferation (in words) [7]: relieved the inhibitory effect
